What all share (test): Kinase profiling in a biochemical assay panel (mobility shift assays and ELISA), %-inhibition at 1 μM; selectivity entropy
(An ELISA detects its analyte on a solid surface through an enzyme-linked reagent.)

In assay [1] the target is panel of more than 300 wild-type and mutant kinases (313 kinase panel) (Homo sapiens, UniProt Q15119). Particulars: kinase PDHK2; 1 μM.
Assay [2] concerns the target T1, panel of more than 300 wild-type and mutant kinases (313 kinase panel) (Homo sapiens, UniProt P29323).
T1 sequence (P29323 19-1055): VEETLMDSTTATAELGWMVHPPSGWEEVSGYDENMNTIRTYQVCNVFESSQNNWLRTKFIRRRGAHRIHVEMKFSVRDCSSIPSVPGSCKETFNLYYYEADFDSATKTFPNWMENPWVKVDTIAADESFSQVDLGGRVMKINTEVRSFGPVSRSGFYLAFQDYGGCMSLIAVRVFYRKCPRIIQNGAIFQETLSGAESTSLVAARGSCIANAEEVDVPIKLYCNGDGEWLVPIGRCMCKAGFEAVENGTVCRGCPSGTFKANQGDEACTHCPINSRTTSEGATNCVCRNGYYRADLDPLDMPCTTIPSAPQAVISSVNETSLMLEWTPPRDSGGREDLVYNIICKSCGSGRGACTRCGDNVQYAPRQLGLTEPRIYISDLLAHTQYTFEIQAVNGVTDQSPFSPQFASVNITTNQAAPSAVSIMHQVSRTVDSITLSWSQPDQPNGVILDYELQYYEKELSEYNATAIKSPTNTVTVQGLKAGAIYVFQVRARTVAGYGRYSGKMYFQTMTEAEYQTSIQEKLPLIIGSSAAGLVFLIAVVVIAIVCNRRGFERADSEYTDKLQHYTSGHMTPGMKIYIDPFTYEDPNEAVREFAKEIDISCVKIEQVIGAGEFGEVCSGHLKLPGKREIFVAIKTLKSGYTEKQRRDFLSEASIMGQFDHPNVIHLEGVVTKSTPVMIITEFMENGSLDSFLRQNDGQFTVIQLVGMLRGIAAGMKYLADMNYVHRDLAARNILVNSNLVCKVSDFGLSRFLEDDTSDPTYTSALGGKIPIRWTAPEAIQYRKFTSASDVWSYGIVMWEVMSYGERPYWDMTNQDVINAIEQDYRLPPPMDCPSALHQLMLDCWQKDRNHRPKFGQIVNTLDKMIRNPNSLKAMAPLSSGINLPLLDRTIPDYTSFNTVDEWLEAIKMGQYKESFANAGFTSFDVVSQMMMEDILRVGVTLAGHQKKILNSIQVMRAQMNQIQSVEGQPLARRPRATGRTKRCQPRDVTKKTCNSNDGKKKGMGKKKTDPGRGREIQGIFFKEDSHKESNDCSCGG
Conditions: kinase EPHB2; compound at 1 μM.

Assay [3] concerns the target panel of more than 300 wild-type and mutant kinases (313 kinase panel) (Homo sapiens, UniProt Q00535). Particulars: kinase CDK5/p25; 1 μM compound.
Assay [4] deals with panel of more than 300 wild-type and mutant kinases (313 kinase panel) (Homo sapiens, UniProt Q9UKE5). Conditions: kinase TNIK; 1 μM.
Assay [5] concerns the target panel of more than 300 wild-type and mutant kinases (313 kinase panel) (Homo sapiens, UniProt P17948). Conditions: kinase FLT1; compound at 1 μM.
In assay [6] the target is panel of more than 300 wild-type and mutant kinases (313 kinase panel) (Homo sapiens, UniProt P22607). Conditions: kinase FGFR3; compound at 1 μM.
Assay [7] deals with panel of more than 300 wild-type and mutant kinases (313 kinase panel) (Homo sapiens, UniProt P68400).
Assay [8] deals with T2, panel of more than 300 wild-type and mutant kinases (313 kinase panel) (Homo sapiens, UniProt Q13188).
T2 sequence (Q13188 1-491): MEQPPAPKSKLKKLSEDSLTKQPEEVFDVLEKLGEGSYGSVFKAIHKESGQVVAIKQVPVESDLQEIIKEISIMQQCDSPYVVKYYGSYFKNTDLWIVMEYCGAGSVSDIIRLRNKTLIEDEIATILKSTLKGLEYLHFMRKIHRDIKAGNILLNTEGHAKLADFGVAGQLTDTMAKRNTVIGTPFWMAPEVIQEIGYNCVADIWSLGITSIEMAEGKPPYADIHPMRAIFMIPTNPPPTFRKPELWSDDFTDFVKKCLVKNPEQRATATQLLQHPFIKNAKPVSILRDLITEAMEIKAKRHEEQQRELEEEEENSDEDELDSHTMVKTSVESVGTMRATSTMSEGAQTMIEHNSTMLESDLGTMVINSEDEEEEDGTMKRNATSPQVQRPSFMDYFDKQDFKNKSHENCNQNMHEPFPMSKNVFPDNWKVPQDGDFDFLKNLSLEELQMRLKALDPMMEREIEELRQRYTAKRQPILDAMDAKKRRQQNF

Assay [9] has as its target panel of more than 300 wild-type and mutant kinases (313 kinase panel) (Homo sapiens, UniProt Q8IU85). Particulars: kinase CaMK1δ; 1 μM compound.
Assay [10] has as its target panel of more than 300 wild-type and mutant kinases (313 kinase panel) (Homo sapiens, UniProt Q9H2X6).
For assay [11], the target named is panel of more than 300 wild-type and mutant kinases (313 kinase panel) (Homo sapiens, UniProt Q04912). Particulars: kinase RON; 1 μM.

The structures appear in SMILES notation.

panel of more than 300 wild-type and mutant kinases (313 kinase panel) (Homo sapiens, UniProt Q9UKE5), sequence (Q9UKE5 whole entry, change not shown): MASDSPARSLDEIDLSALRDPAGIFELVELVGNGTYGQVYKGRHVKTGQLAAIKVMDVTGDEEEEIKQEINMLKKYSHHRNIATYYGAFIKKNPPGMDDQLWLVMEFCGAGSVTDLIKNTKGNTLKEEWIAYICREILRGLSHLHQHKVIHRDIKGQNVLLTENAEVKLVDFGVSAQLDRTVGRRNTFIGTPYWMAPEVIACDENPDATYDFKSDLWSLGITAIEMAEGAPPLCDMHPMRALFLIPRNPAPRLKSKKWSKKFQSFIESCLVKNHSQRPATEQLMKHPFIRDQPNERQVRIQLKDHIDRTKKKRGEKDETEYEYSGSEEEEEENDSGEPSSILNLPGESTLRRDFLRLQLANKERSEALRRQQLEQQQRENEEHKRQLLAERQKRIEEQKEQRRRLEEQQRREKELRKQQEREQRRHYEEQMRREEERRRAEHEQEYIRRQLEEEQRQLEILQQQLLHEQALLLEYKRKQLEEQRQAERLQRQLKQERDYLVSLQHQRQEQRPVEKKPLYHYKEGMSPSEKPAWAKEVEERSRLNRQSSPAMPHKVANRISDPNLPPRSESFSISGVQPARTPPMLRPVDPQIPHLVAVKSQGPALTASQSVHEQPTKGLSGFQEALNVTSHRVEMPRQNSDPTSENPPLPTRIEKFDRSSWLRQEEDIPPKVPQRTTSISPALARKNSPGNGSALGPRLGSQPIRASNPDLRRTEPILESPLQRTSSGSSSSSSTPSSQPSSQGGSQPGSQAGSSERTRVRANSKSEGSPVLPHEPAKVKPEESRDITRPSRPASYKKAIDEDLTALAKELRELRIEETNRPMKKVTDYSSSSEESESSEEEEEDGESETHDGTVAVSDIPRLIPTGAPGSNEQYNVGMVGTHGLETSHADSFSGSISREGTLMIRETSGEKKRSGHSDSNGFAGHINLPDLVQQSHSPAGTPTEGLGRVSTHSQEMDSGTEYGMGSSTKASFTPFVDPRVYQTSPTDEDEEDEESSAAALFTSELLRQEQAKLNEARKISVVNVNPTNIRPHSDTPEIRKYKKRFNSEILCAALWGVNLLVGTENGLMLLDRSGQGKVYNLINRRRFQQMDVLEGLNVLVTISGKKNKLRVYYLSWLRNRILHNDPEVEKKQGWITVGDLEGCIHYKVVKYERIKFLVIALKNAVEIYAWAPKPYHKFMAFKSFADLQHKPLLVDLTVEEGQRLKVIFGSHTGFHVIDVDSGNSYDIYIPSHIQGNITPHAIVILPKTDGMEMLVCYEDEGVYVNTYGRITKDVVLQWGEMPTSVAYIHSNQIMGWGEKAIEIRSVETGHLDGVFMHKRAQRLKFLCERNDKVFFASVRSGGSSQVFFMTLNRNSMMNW
panel of more than 300 wild-type and mutant kinases (313 kinase panel) (Homo sapiens, UniProt P22607), sequence (P22607 23-806, change not shown): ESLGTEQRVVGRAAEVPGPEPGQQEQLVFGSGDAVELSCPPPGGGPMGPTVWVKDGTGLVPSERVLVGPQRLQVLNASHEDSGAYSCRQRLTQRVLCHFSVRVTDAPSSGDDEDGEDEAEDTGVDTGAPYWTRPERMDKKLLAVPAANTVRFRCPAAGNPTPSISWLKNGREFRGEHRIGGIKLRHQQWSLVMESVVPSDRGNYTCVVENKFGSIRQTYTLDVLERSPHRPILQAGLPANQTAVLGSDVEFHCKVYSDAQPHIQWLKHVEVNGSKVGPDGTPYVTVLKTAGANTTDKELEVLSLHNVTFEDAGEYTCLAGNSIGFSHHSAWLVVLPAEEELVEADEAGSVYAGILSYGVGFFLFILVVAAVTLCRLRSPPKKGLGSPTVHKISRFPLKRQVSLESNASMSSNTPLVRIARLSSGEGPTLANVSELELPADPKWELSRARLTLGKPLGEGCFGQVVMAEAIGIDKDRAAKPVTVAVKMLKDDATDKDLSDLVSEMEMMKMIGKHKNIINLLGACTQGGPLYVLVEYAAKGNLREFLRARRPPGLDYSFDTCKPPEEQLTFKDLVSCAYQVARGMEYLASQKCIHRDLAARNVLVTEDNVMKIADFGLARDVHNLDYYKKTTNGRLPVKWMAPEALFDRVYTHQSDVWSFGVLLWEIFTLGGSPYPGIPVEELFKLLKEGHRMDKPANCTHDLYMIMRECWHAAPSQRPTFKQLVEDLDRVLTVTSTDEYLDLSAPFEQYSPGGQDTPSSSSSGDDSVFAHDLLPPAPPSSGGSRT
panel of more than 300 wild-type and mutant kinases (313 kinase panel) (Homo sapiens, UniProt Q00535), sequence (Q00535 whole entry, change not shown): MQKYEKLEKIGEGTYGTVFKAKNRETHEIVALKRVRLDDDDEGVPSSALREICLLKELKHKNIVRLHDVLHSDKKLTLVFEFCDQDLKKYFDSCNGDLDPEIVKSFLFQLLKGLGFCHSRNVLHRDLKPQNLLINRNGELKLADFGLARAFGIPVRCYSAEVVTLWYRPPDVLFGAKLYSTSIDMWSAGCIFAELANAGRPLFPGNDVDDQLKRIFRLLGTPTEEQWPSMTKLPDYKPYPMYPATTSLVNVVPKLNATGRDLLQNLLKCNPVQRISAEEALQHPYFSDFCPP

Take `CN(C)C/C=C/C(=O)Nc1cc2c(Nc3ccc(F)c(Cl)c3)ncnc2cc1O[C@H]1CCOC1` [afatinib]: the “%-inhibition of PDHK2” value in assay [1] is recorded as -2.76%.

Regarding `COc1cc(Nc2c(C#N)cnc3cc(OCCCN4CCN(C)CC4)c(OC)cc23)c(Cl)cc1Cl` [bosutinib], the “%-inhibition of EPHB2” value in [2] was found to be 95%. Moreover, the “%-inhibition, CDK5/p25” value in assay [3] is on record as -25%. The “%-inhibition of PDHK2” value in assay [1] was -3.29%. In addition, the “%-inhibition of TNIK” value in [4] is 102%.

For the compound `C[C@@H](Oc1cc(-c2cnn(C3CCNCC3)c2)cnc1N)c1c(Cl)ccc(F)c1Cl` [crizotinib], the “%-inhibition of FLT1” value in assay [5] was 53%. In addition, the “%-inhibition of FGFR3” value in assay [6] is 43%. Besides, the “%-inhibition of EPHB2” value in assay [2] was determined as 57%. Moreover, the “%-inhibition, CK2α1/β” value in assay [7] (1 µM) was -6.39%. Besides, the “%-inhibition, CDK5/p25” value in assay [3] is -8%. For the same compound, in assay [8] (kinase MST2, 1 μM), the “%-inhibition of MST2” value was determined as 13%. The “%-inhibition of PDHK2” value in [1] is listed as -3.51%. Besides, in [9], the “%-inhibition, CaMK1δ” value was -4%. For the same compound, in [10] (kinase HIPK2, compound at 1 μM), the “%-inhibition of HIPK2” value is given as -6.53%. Further, in [4], the “%-inhibition of TNIK” value was determined as 11%.

Take `CC(C)(C)c1nc(-c2cccc(NS(=O)(=O)c3c(F)cccc3F)c2F)c(-c2ccnc(N)n2)s1` [dabrafenib]: the “%-inhibition of FLT1” value in assay [5] turned out to be 62%. The “%-inhibition of FGFR3” value in assay [6] turned out to be 4.27%. Also, the “%-inhibition of EPHB2” value in [2] is -3.38%. Besides, the “%-inhibition, CDK5/p25” value in assay [3] is 22%. In addition, in assay [11], the “%-inhibition of RON” value was determined as 37%. The “%-inhibition of PDHK2” value in [1] is listed as 0.108%. Further, the “%-inhibition of HIPK2” value in assay [10] (kinase HIPK2, compound at 1 μM) was determined as 42%. For the same compound, in assay [4], the “%-inhibition of TNIK” value amounted to 15%.

Turning to `Cc1nc(Nc2ncc(C(=O)Nc3c(C)cccc3Cl)s2)cc(N2CCN(CCO)CC2)n1` [dasatinib], the “%-inhibition, CK2α1/β” value in [7] (kinase CK2α1/β, 1 μM compound) is on record as -1.7%. In addition, the “%-inhibition, CDK5/p25” value in [3] is 4.63%. Further, the “%-inhibition of HIPK2” value in assay [10] (kinase HIPK2, compound at 1 μM) is 6%.

Regarding `O=S(=O)(c1cccc2cnccc12)N1CCCNCC1` [fasudil], the “%-inhibition of FLT1” value in assay [5] is listed as -0.73%. Further, in assay [6], the “%-inhibition of FGFR3” value is listed as -2%. Further, the “%-inhibition of EPHB2” value in [2] is on record as -7.43%. Further, in [7] (kinase CK2α1/β, 1 μM compound), the “%-inhibition, CK2α1/β” value is -4%. Also, the “%-inhibition of RON” value in assay [11] is recorded as -6%. The “%-inhibition of MST2” value in assay [8] (kinase MST2, 1 μM) is 1.77%. The “%-inhibition of PDHK2” value in assay [1] is recorded as -0.108%. Also, the “%-inhibition, CaMK1δ” value in assay [9] is given as -4%. Besides, in assay [10] (kinase HIPK2, compound at 1 μM), the “%-inhibition of HIPK2” value is recorded as -1.86%. In assay [4], the “%-inhibition of TNIK” value is 4%.

As for `CS(=O)(=O)CCNCc1ccc(-c2ccc3ncnc(Nc4ccc(OCc5cccc(F)c5)c(Cl)c4)c3c2)o1` [lapatinib], the “%-inhibition of FGFR3” value in [6] came to 0.327%. In addition, the “%-inhibition of EPHB2” value in assay [2] is 4.6%. Besides, in assay [7] (kinase CK2α1/β, 1 μM compound), the “%-inhibition, CK2α1/β” value was -1.7%. Besides, in assay [3], the “%-inhibition, CDK5/p25” value stood at 0.201%. For the same compound, the “%-inhibition of RON” value in assay [11] is recorded as 1.17%. The “%-inhibition of MST2” value in [8] (1 µM) is reported as -0.701%. Also, in assay [1], the “%-inhibition of PDHK2” value is reported as -5%. For the same compound, the “%-inhibition, CaMK1δ” value in assay [9] is listed as -4%. Further, the “%-inhibition of HIPK2” value in assay [10] (kinase HIPK2, compound at 1 μM) is 1.46%. Also, in [4], the “%-inhibition of TNIK” value came out at 25%.

In the case of `Cc1ccc(Nc2nccc(N(C)c3ccc4c(C)n(C)nc4c3)n2)cc1S(N)(=O)=O` [pazopanib], the “%-inhibition of FLT1” value in assay [5] is 100%. Also, in [2], the “%-inhibition of EPHB2” value came out at 16%. For the same compound, in assay [7] (kinase CK2α1/β, 1 μM compound), the “%-inhibition, CK2α1/β” value is recorded as -3%. Also, the “%-inhibition, CDK5/p25” value in [3] was 9%. The “%-inhibition of RON” value in [11] is recorded as 13%. For the same compound, in assay [8] (kinase MST2, 1 μM), the “%-inhibition of MST2” value is reported as 2%. In addition, the “%-inhibition of PDHK2” value in assay [1] is given as -4.23%. In addition, in assay [9], the “%-inhibition, CaMK1δ” value was -1.49%. Besides, in assay [10] (kinase HIPK2, compound at 1 μM), the “%-inhibition of HIPK2” value came to 5.51%. Moreover, the “%-inhibition of TNIK” value in assay [4] stood at 83%.

As for `Cc1ccc(C(=O)Nc2ccc(CN3CCN(C)CC3)c(C(F)(F)F)c2)cc1C#Cc1cnc2cccnn12` [ponatinib], the “%-inhibition of FLT1” value in [5] was determined as 101%. In addition, the “%-inhibition of FGFR3” value in assay [6] was found to be 101%. In addition, the “%-inhibition of EPHB2” value in assay [2] is 102%. The “%-inhibition, CDK5/p25” value in assay [3] is -20%. The “%-inhibition of RON” value in assay [11] came out at 39%. Besides, the “%-inhibition of PDHK2” value in assay [1] is reported as -0.22%. Besides, in assay [4], the “%-inhibition of TNIK” value is given as 96%.

Consider `N#CC[C@H](C1CCCC1)n1cc(-c2ncnc3[nH]ccc23)cn1` [ruxolitinib], for which the “%-inhibition of FLT1” value in assay [5] stood at 11%. Besides, the “%-inhibition of FGFR3” value in assay [6] is given as 15%. The “%-inhibition of EPHB2” value in assay [2] stood at 5.54%. Also, the “%-inhibition, CK2α1/β” value in [7] (kinase CK2α1/β, 1 μM compound) is on record as -6%. The “%-inhibition, CDK5/p25” value in [3] is recorded as -16%. Also, in [11], the “%-inhibition of RON” value is recorded as -5%. In addition, the “%-inhibition of MST2” value in [8] (kinase MST2, 1 μM) is recorded as 3%. Also, in [1], the “%-inhibition of PDHK2” value is -4%. In assay [10] (1 µM), the “%-inhibition of HIPK2” value was 9%. In addition, the “%-inhibition of TNIK” value in assay [4] was found to be 0.811%.

As to `CCN(CC)CCNC(=O)c1c(C)[nH]c(/C=C2\C(=O)Nc3ccc(F)cc32)c1C` [sunitinib], the “%-inhibition of FLT1” value in assay [5] worked out at 98%. Moreover, the “%-inhibition of FGFR3” value in assay [6] was 97%. Moreover, the “%-inhibition of EPHB2” value in assay [2] was 81%. In addition, in [7] (kinase CK2α1/β, 1 μM compound), the “%-inhibition, CK2α1/β” value is listed as -21%. Further, the “%-inhibition of RON” value in [11] worked out at 22%. The “%-inhibition of TNIK” value in assay [4] stood at 94%.

With `COc1cc2c(Nc3ccc(Br)cc3F)ncnc2cc1OCC1CCN(C)CC1` [vandetanib], in assay [2], the “%-inhibition of EPHB2” value is listed as 96%. Moreover, the “%-inhibition, CK2α1/β” value in assay [7] (kinase CK2α1/β, 1 μM compound) is -7%. The “%-inhibition, CDK5/p25” value in assay [3] is on record as -25%. The “%-inhibition of MST2” value in assay [8] (kinase MST2, 1 μM) was -4%. Besides, the “%-inhibition of PDHK2” value in [1] was found to be 0.22%. Moreover, the “%-inhibition, CaMK1δ” value in assay [9] is reported as -3%. The “%-inhibition of HIPK2” value in [10] (kinase HIPK2, compound at 1 μM) is given as -11%. Further, in assay [4], the “%-inhibition of TNIK” value was found to be 66%.

Source of the values: PMC3961306, “Comparison of the Cancer Gene Targeting and Biochemical Selectivities of All Targeted Kinase Inhibitors Approved for Clinical Use” (PLoS ONE, 2014).
